Values quoted from earlier work, collected in patent US11325944B2 (priority 2017, dated 2022).
[ ]: non-standard residue; d: D form.

Experiments:
[1] = tested on: KOR
[2] = target: KOR (Homo sapiens, UniProt P41145)
[3] = target: DOR; conditions: δ opioid receptor, CHO cell membranes; read-out: Kd of radioligand

KOR (Homo sapiens, UniProt P41145), sequence (P41145 whole entry): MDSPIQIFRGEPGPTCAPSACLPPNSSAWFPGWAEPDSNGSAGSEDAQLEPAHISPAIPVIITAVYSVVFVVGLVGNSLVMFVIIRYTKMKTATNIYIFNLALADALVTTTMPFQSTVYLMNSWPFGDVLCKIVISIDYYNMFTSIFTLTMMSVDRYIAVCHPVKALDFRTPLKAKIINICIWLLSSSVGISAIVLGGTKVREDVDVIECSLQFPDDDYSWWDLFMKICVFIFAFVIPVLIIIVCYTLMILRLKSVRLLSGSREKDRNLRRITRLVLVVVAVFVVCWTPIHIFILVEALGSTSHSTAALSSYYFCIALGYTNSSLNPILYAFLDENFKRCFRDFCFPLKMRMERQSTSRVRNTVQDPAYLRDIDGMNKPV

Substance: cyclo [CJ-15,208, cyclo [Phe-D-Pro-Phe-Trp]]
- agonist (antinociceptive) activity in vivo [1]: mild agonist (antinociceptive) activity

Substance: cyclo(F[dP]F[dW]) [[D-Trp]CJ-15,208]
- selectivity for KOR over MOR and DOR [2]: selective activity against the kappa opioid receptor (KOR) over mu opioid receptors (MOR) and delta opioid receptors (DOR)
- KOR antagonism in vitro ([2]; in vitro): antagonize KOR in vitro
- KOR antagonism ([1]; in vivo): exhibited KOR antagonism

Substance: cyclo[D-Pen^2, D-Pen]enkephalin [[^3H]-DPDPE]
- Kd [3]: 1.76 nM
